# Assay results from US20250257058A1, “COMPOSITIONS AND METHODS FOR INHIBITING CARP-1 BINDING TO NEMO” (The United States Government as represented by the …, priority 2022, published 2025).
# “Also recorded” adds a separate entry of the source. Like-named read-outs stand apart in the source and are kept apart here.
# Assays:
# MDA-MB-468 cells = test: MTT cytotoxicity assay in MDA-MB-468 cells; format: cell-based; settings: for Cell viability inhibition as single agent compared with SNI-1: MDA-MB-468, single agent; for Cell viability inhibition (%) (Single agent) MDA-MB-468: MTT, SNI analogs 5 μM, doxorubicin 5 μM, cisplatin 20 μM; for Cytotoxicity in combination with doxorubicin compared with SNI-1: MDA-MB-468, 5 μM compound + 5 μM doxorubicin; for Cell viability inhibition in combination with cisplatin compared with SNI-1: MDA-MB-468, 5 μM compound + 20 μM cisplatin
# Procedure: (§1) The cell lines were cultured in Dulbecco's Modified Eagle's Medium and Roswell Park Memorial Institute (RPMI) as per ATCC recommendation. Media was supplemented with 10% FBS, 2 mM L-glutamine, 100 U/ml penicillin, and 100 mg/ml streptomycin and incubated at 37° C. in a 5% CO2 air humidified atmosphere.
# (§2) For the in vitro cytotoxicity studies, cells were seeded in 96-well plates with approximately 5000-8000 cells per well, depending upon the cell's exponential growth.
# (§3) For cytotoxic response, cells were analyzed using the MTT reagent dissolved in PBS (1 mg/ml) at pH 7.4. […] Cells were then incubated again for 2-4 hours at 37° C., after which time the MTT reagent was added and the cells were incubated an additional 2 hours. Following this, the media was supplanted by DMSO, and the plates were put on a shaker for 15 min. The absorbance was measured at 570 nm using a high-performance multi-mode plate reader (Synergy 2, BioTek). The percentage of surviving cells was calculated by comparing the treated cells' absorbance and legitimate controls cells. The same procedure was followed for all the cell lines and later calculate the percentage of viable cells independently.
# MDA-MB-231 cells [1] = test: MTT cytotoxicity assay in MDA-MB-231 cells; format: cell-based; settings: for cytotoxicity at 5 µM: Homo sapiens; for Inhibition of viabilities as single agent compared with SNI-1: 24 h or 48 h
# Procedure: Here, SNI-1 analogs were synthesized by incorporating combinations of substitutions on Rings A and C (FIG. 8). The efficacy of these compounds was analyzed in two different cell lines: MDA-MB-468 and MDA-MB-231. […] The duration of treatment time was 24 h for […] and 24 h and 48 h for MDA-MB-231 cells. These cells are a more aggressive form of TNBC cells. It expresses both epidermal growth factor (EGF) and transforming growth factor-alpha (TGF alpha) receptors.
# HCC-1937 cells [2] = settings: human, 24 h, 5 μM
# Procedure: as §1, §2, §3
# (§4) Each histogram's columns indicate the percent of live/viable cells relative to their DMSO-treated controls.
# MDA-MB-231 cells [3] = settings: MDA-MB-231, 4T1 and resistant TNBC cells; 5 μM SNI-1 + 20 μM cisplatin; cited from earlier work
# 4T1 TNBC = settings: cited from earlier work
# CARP-1 and NEMO binding = target: T1, CARP-1 and NEMO binding (Homo sapiens, UniProt Q8IX12); settings: biochemical mechanism; cited from earlier work
# T1 sequence (Q8IX12 1-1150): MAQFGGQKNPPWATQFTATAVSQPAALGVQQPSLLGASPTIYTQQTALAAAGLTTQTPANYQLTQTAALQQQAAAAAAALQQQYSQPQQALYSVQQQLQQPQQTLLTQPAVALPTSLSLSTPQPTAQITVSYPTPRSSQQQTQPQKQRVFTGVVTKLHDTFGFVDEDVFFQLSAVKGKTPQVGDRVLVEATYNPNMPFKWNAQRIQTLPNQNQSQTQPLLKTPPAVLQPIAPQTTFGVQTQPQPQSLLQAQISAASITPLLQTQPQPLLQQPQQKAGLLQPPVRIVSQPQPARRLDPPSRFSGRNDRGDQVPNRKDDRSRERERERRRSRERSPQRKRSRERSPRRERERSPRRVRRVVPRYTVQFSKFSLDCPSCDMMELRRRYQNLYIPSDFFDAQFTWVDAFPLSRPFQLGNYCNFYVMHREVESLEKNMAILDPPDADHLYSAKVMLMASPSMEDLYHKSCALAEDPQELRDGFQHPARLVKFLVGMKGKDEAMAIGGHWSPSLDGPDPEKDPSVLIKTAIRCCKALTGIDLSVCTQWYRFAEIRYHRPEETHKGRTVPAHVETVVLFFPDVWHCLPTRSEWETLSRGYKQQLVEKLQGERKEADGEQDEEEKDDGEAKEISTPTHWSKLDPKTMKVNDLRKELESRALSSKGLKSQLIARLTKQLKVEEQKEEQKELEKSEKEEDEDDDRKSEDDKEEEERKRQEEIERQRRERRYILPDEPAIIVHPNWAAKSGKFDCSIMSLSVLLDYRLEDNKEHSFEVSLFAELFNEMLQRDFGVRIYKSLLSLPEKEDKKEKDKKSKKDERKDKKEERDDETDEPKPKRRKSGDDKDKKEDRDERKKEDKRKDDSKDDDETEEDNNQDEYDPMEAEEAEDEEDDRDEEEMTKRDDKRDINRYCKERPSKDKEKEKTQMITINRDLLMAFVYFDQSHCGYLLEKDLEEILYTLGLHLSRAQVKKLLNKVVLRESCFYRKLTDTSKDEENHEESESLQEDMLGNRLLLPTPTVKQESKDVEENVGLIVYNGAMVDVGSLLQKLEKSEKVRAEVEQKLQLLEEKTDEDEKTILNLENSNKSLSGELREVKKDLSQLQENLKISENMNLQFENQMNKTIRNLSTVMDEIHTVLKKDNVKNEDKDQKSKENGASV
# HCC-1937 cells [4] = test: MTT cytotoxicity assay in HCC-1937 cells (BRCA-1 mutation); settings: 24 h
# Procedure: as §1, §2, §3, §4
# [5] = Homo sapiens, MDA-MB-468, 5 μM compound + 5 μM doxorubicin, 24 h, read-out: Cell viability inhibition (%) with Doxorubicin MDA-MB-468
# [6] = MDA-MB-231, 5 μM compound + 5 μM doxorubicin, 24 h, read-out: Cell viability inhibition (%) with Doxorubicin MDA-MB-231
# [7] = single agent, SNI analogs 5 μM, doxorubicin 5 μM
Structure (SMILES),cytotoxicity at 5 µM (MDA-MB-468 cells; [5]) [%],"Cell viability inhibition (%) (Single agent) MDA-MB-468 (MDA-MB-468 cells; single agent, 24 h)",cytotoxicity at 5 µM (MDA-MB-231 cells [1]; [6]) [%],Cell viability inhibition (%) Single-agent MDA-MB-231 (MDA-MB-231 cells [1]; [7]) [%],Cell viability inhibition (%) Single-agent HCC-1937 (HCC-1937 cells [2]) [%],Cell viability inhibition in combination with cisplatin compared with SNI-1 (MDA-MB-468 cells; 24 h),also measured
"CCOC(=O)c1ccc(-n2nnnc2SCC(=O)c2ccc(O)c(O)c2)cc1 [GL-251, Ethyl 4-(5-((2-(3,4-dihydroxyphenyl)-2-oxoethyl)thio)-1H-tetrazol-1-yl)benzoate]",,,,,,,"Cell viability inhibition as single agent compared with SNI-1 (MDA-MB-468 cells; 5 μM, 24 h): greater cell viability inhibition as a single agent when compared to SNI-1"
"COc1cccc2c1C(=O)c1c(O)c3c(c(O)c1C2=O)C[C@@](O)(C(=O)CO)C[C@@H]3O[C@H]1C[C@H](N)[C@H](O)[C@H](C)O1 [Doxorubicin, reference compound]",,,,,,,"cytotoxicity at 5 µM (MDA-MB-468 cells; Homo sapiens, MDA-MB-468, 24 h, read-out: Cell viability inhibition (%) (Single agent) MDA-MB-468): ~39%; cytotoxicity at 5 µM (MDA-MB-231 cells [1]; MDA-MB-231, single agent, SNI analogs 5 μM, doxorubicin 5 μM, read-out: Cell viability inhibition (%) Single-agent MDA-MB-231): ~56%"
"Cc1ccc(-n2nnnc2SCC(=O)c2ccc(O)c(O)c2)cc1 [SNI-1, 1-(3,4-dihydroxyphenyl)-2-((1-(p-tolyl)-1H-tetrazol-5-yl)thio)ethan-1-one]",~75,10,~77,~8,11,,Loss of viability in combination with cisplatin (previous studies) (MDA-MB-231 cells [3]): significant loss of viability; Response as a single agent in the syngeneic 4T1 TNBC model (4T1 TNBC): failed its response; Binding with CARP-1 and inhibition of its interaction with NEMO (CARP-1 and NEMO binding): binds with CARP-1 and inhibits its interaction with NEMO
"O=C(CSc1nnnn1-c1ccc(Cl)cc1Cl)c1ccc(O)c(O)c1 [GL-341, 2-((1-(2,4-dichlorophenyl)-1H-tetrazol-5-yl)thio)-1-(3,4-dihydroxyphenyl)ethan-1-one]",~49,~3,~68,~21,~6,greater inhibitory effect,"Cytotoxicity in combination with doxorubicin compared with SNI-1 (MDA-MB-468 cells; 24 h): slightly higher cytotoxicity; Efficacy in combination with cisplatin compared with SNI-1 (MDA-MB-231 cells [1]; MDA-MB-231, 5 μM compound + 20 μM cisplatin, 48 h): better efficacy when used in combination with cisplatin compared to SNI-1 and cisplatin itself; Inhibition of viabilities as single agent compared with SNI-1 (MDA-MB-231 cells [1]; MDA-MB-231, single agent, 5 μM): greater inhibition of viabilities than SNI-1"
"NS(=O)(=O)c1ccc(-n2nnnc2SCC(=O)c2ccc(O)c(O)c2)cc1 [GL-252, 4-(5-((2-(3,4-dihydroxyphenyl)-2-oxoethyl)thio)-1H-tetrazol-1-yl)benzenesulfonamide]",62,18,,,~10,slightly higher viability inhibition compared with cisplatin and SNI-1 in combination or cisplatin alone; also recorded: viability inhibition equal to or better than parent SNI-1,"Cell viability inhibition as single agent compared with SNI-1 (MDA-MB-468 cells; 5 μM, 24 h): greater cell viability inhibition as a single agent when compared to SNI-1"
"COc1ccc(C(=O)CSc2nnnn2-c2ccc(C)cc2)cc1OC [GL-339, 1-(3,4-dimethoxyphenyl)-2-((1-(p-tolyl)-1H-tetrazol-5-yl)thio)ethan-1-one]",,,,,,greater inhibition in combination with cisplatin,
"Cc1ccc(-n2nnnc2SCC(=O)c2ccc(N3CCOCC3)cc2)cc1 [GL-269, 1-(4-morpholinophenyl)-2-((1-(p-tolyl)-1H-tetrazol-5-yl)thio)ethan-1-one]",53,37,,,~10,much better activity in combination with cisplatin; also recorded: viability inhibition equal to or better than parent SNI-1,
"O=C(CSc1nnnn1-c1ccc([N+](=O)[O-])cc1)c1ccc(O)c(O)c1 [GL-342, 1-(3,4-dihydroxyphenyl)-2-((1-(4-nitrophenyl)-1H-tetrazol-5-yl)thio)ethan-1-one]",~50,~22.27,~73,~23,~21,greater inhibitory effect,"Extra loss of cell viability versus parent SNI-1 at 5 µM (MDA-MB-468 cells; Homo sapiens, MDA-MB-468 (FIG. 9), single agent, 5 μM, 24 h, read-out: Greater loss of cell viability as compared to parent SNI-1): ~10%; Cytotoxicity in combination with doxorubicin compared with SNI-1 (MDA-MB-468 cells; 24 h): slightly higher cytotoxicity; Cell viability inhibition as single agent compared with SNI-1 (MDA-MB-468 cells; 5 μM, 24 h): more cell viability inhibition; Inhibition of viabilities as single agent compared with SNI-1 (MDA-MB-231 cells [1]; MDA-MB-231, single agent, 5 μM): more cell viability inhibition; also recorded: greater inhibition of viabilities than SNI-1; Activity in combination with cisplatin compared with SNI-1 (HCC-1937 cells [4]; HCC-1937, 5 μM compound + 20 μM cisplatin): more cell viability inhibition than SNI-1 in combination with cisplatin"
"NS(=O)(=O)c1ccc(-n2nnnc2SCC(=O)c2ccc(N3CCOCC3)cc2)cc1 [GL-343, 4-(5-((2-(4-morpholinophenyl)-2-oxoethyl)thio)-1H-tetrazol-1-yl)benzenesulfonamide]",~57,~2,~79,~36,~1,,"cytotoxicity at 5 µM (MDA-MB-231 cells [1]; MDA-MB-231, single agent, 5 μM, read-out: Greater inhibition of cell viability when compared with SNI-1 as a single agent): ~30%; Cytotoxicity in combination with doxorubicin compared with SNI-1 (MDA-MB-231 cells [1]; MDA-MB-231, 5 μM compound + 5 μM doxorubicin, 24 h): much better cytotoxicity when compared with SNI-1; Inhibition of viabilities as single agent compared with SNI-1 (MDA-MB-231 cells [1]; MDA-MB-231, single agent, 5 μM): greater inhibition of viabilities than SNI-1"
O=C(CSc1nc(-c2ccccc2)cs1)c1ccc(O)c(O)c1 [GL-216],,10,,,,viability inhibition equal to or better than parent SNI-1,"Cell viability inhibition (%) with Doxorubicin MDA-MB-468 (MDA-MB-468 cells; 5 μM compound + 5 μM doxorubicin, 24 h): ~80%; Cell viability inhibition (%) with Cisplatin HCC-1937 (HCC-1937 cells [4]; 5 μM compound + 20 μM cisplatin): ~46%; Cell viability inhibition (%) Single-agent HCC-1937 (HCC-1937 cells [4]; single agent, SNI analogs 5 μM, cisplatin 20 μM): ~5%"
"Cc1ccc(-n2nnnc2SCC(=O)c2ccc3c(c2)OCCO3)cc1 [GL-268, 1-(2,3-dihydrobenzo[b][1,4]dioxin-6-yl)-2-((1-(p-tolyl)-1H-tetrazol-5-yl)thio)ethan-1-one]",,,,,,viability inhibition equal to or better than parent SNI-1,
